Literature values in patent publication US5733881A, “Opioid peptide antagonists” (Astra AB, priority 1994, dated 1998).

Tested on: μ opioid receptors
Conditions: GPI assay

Structure (SMILES): Oc1ccc2c3c1O[C@H]1c4[nH]c5ccccc5c4C[C@@]4(O)[C@@H](C2)N(CC2CC2)CC[C@]314 [naltrindole]
- μ antagonist Ke: 29 nM
